Assay results published in patent US20250312365A1, “METHODS FOR INHIBITION OF SQUAMOUS CARCINOMA CELLS USING CERAMIDE MODULATORS” (The Trustees of Indiana University, priority 2024, published 2025).
“Also recorded” adds a separate entry of the source.

Key:
[1] = system: healthy human gingival epithelial control cells (OBA9); assay: Cell viability/proliferation assay (WST-1) in healthy OBA9 cells; type: cell-based; conditions: 0.1 μg/ml and 1 μg/ml; WST-1
Excerpt: In specific examples, colorimetric assays can be used to assess cellular viability and proliferation of cell cultures, such as MTT, WST-1, and resazurin assays. See, e.g., Präbst et al., Methods Mol Biol. 2017:1601:1-17.
Various cell lines were exposed to PGDHC, including human gingival squamous carcinoma cells (OECM1), tongue squamous carcinoma cells (SCC4, SCC9), and healthy human gingival epithelial control cells (OBA9) in vitro.
LCL521 is a dose-dependent acid ceramidase inhibitor. Comparison of the concentration-dependent effects of an acid ceramidase inhibitor, LCL521 (MedChemExpress®), and the bacterial-isolated a15:0-15:0PE phospholipid on the viability of healthy human epithelial, OBA9, and oral squamous cancer cell lines, OECM1 and SCC9, in vitro was evaluated. […] (FIG. 15A). […] (FIG. 15B).

NFkB = NFkB mRNA expression in OECM1 cells; type: cell-based, human
Experimental: (§1) NF-kB, MMP-2, ADAM-17, and IL6 are implicated in the degradation of the expression of genes involved in the cell basement membrane and extracellular matrix of oral squamous cell carcinoma. Accordingly, the expression of NFkB, MMP2, ADAM17, and IL6 in OECM1 cells following exposure to 0.1 μg/ml PGDHC and 1 μg/ml PGDHC was determined.
(§2) Sphingosine-1-phosphate (S1P) sphingolipid plays an essential role in the survival, migration, and degradation of the basement membrane and extracellular matrix of oral squamous cell carcinoma (Yura et al., Cancers (Basel). 2020 August; 12(8): 2062). To determine whether PGDHC can inhibit such properties, the combined effects of PGDHC and S1P on OECM1 gene expression was tested in vitro.

MMP2 = MMP2 mRNA expression in OECM1 cells; type: cell-based, human
Experimental: as §1, §2

OECM1 cells [2] = assay: Scratch wound healing migration assay, OECM1; type: cell-based, human; conditions: compared to sham control
Excerpt: In vitro assays can be used to evaluate cell migration, including scratch-wound assays and wound healing assays, as in Xu et al., Exp Ther Med. 2023 October; 26(4):460. See also Liang et al., Nat Protoc. 2007;2(2):329-33 and Martinetti & Ronzato, Methods Mol Biol. 2020:2109:225-229. Additionally, the genetic components of cell migration and invasion can be evaluated. For example, MMP-2, ADAM-17 and IL-6 are associated with degradation of the basement membranes and extracellular matrix in OECM-1 cells. See, e.g., Yamada et al., J Cell Mol Med. 2023 May; 27(9):1290-1295.
(§3) A scratch wound healing assay was performed according to known methods to assess the effects of PGDHC on the migration of human oral squamous cell carcinoma cells. […] The scratch wound healing assay was validated with a transwell migration assay.
A wound healing migration assay was also conducted to determine the effects of S1P alone or in combination with PGDHC on cell migration. See Yamada et al., J Cell Mol Med. 2023 May; 27(9):1290-1295.

OECM1 cells [3] = assay: Transwell (insert) transmigration assay, OECM1; type: cell-based, human; conditions: 1 μg/ml, compared to sham control
Experimental: as §3

N-cadherin = assay: Western blot of N-cadherin in OECM1 cells; type: cell-based, human; conditions: 24 h of treatment
Experimental: To determine the effect of PGDHC on cell markers involved in metastasis, the protein levels of p-STAT3, EMT markers, E-cadherin, N-cadherin, and Vimentin in OECM1 cells following in vitro exposure to PGDHC were determined by Western blot assay.

OECM1 cells [4] = assay: Untargeted metabolomic pathway analysis (LC/MS) in OECM1 cells; type: cell-based, human; conditions: 1 μg/ml for 6 h
Excerpt: (§4) Based on this analysis, at least 5 different cell survival metabolomic pathways, underlined in red were diminished in OSCC (OECM1 and SCC9), but not in healthy epithelial OBA9 cells in response to PGDHC. The 5 pathways were folate metabolism, arginine and proline metabolism, glycine and serine metabolism, de novo triacylglycerol biosynthesis, and mitrochondrial electron transport chain.
The plots in FIGS. 16A and 16B display the enriched pathways identified in the analysis, with their corresponding significance levels represented on the x-axis. The significance threshold (p<0.05) is denoted by the dashed line. […] Additionally, the color of the dots represents the enrichment, which indicates the extent to which the metabolites in the pathway were clustered amongst the compounds with the most positive fold-changes (positive enrichments), the most negative fold-changes (negative enrichments), or uniformly distributed across high and low fold-change compounds (enrichment values near 0.0). […] Polar and lipid metabolites were analyzed with hydrophilic interaction chromatography (HILIC/MS) and liquid chromatography (LC/MS), respectively. Mass spectrometry analysis was completed with a mass range of 67-1500 Da with 1 scan/sec and a mass resolution of 120,000 in both positive and negative ionization mode. The MS/MS mass-spectrometry data were acquired in a data-dependent iterative fashion with a 1.3 m/z isolation window. Based upon this metabolomic analysis, phosphoglycerol dihydroceramide (PGDHC) isolated from Porphyromonas gingivalis inhibits metabolomic pathways essential for cell survival in oral squamous cell carcinoma cells (OSCC).
(§5) The Warburg effect is a metabolic phenomenon observed in many cancer cells, where the cells preferentially use glycolysis metabolism to produce energy instead of oxidative phosphorylation. The Warburg effect is a hallmark of rapid cancer cell growth. Therefore, we evaluated whether PGDHC altered Warburg effect in OSCM1 and SCC9 oral squamous cell carcinoma cells (FIG. 17A), but not healthy epithelial OBA9 cells (FIG. 17B), in vitro. Cells were stimulated with PGDHC (1 μg/ml) for 6 h and the untargeted metabolomic analysis was performed using LC/MS mass-spectrometry. Polar and lipid metabolites were analyzed with HILIC/MS and LC/MS, respectively. Mass spectrometry analysis was completed with a mass range of 67-1500 Da with 1 scan/sec and a mass resolution of 120,000 in both positive and negative ionization mode. MS/MS data were acquired in a data-dependent iterative fashion with a 1.3 m/z isolation window.
Based upon the impact of PGDHC on the Warburg effect in OSCC cells, we further analyzed the levels of cancer-survival metabolites adenosine triphosphate (ATP) and glucose in the OECM1, SCC9, and OBA9 cells described in Example 11. As shown in FIG. 18A and FIG. 18B, PGDHC altered the levels of both ATP and glucose in OECM1 and SCC9 oral squamous cell carcinoma cells, but not OBA9. The metabolites levels are presented as the relative abundance based on the data presented in FIG. 16 and FIG. 17 heat maps.

[5] = system: healthy epithelial OBA9 cells; assay: Untargeted metabolomic pathway analysis (LC/MS) in healthy OBA9 cells; type: cell-based, human; conditions: 1 μg/ml for 6 h
Excerpt: as §4
as §5, with “Mass spectrometry analysis was completed with a mass range of 67-1500 Da with 1 scan/sec and a mass resolution of 120,000 in both positive and negative ionization mode. MS/MS data were acquired in a data-dependent iterative fashion with a 1.3 m/z isolation window.” left out
Based upon the impact of PGDHC on the Warburg effect in OSCC cells, we further analyzed the levels of cancer-survival metabolites adenosine triphosphate (ATP) and glucose in the OECM1, SCC9, and OBA9 cells described in Example 11. […]

phosphoglycerol dihydroceramide [PGDHC]
proliferation of healthy control OBA9 cells [1]: did not have a detectable effect; also recorded: did not have an observable effect | expression of NFkB mRNA in OECM1 cells (NFkB; 1 μg/ml): significantly inhibited | expression of NFkB mRNA in OECM1 cells exposed to S1P (NFkB; in combination with S1P): significantly inhibited | expression of MMP2 mRNA in OECM1 cells (MMP2; 1 μg/ml): significantly inhibited | MMP2 mRNA levels in OECM1 cells exposed to S1P (MMP2; in combination with S1P): a significant effect was not observed | OECM1 migration, scratch wound healing assay (OECM1 cells [2]; 1 μg/ml): significantly inhibited | S1P-mediated wound-healing migration of OECM1 (OECM1 cells [2]; in combination with S1P): dramatically inhibited | number of transmigrated OECM1 cells (OECM1 cells [3]): significantly reduced | protein level of N-cadherin in OECM1 cells (N-cadherin): little to no detectable effect | Warburg effect in OECM1 cells (OECM1 cells [4]): altered | arginine and proline metabolism in OECM1 cells (OECM1 cells [4]): diminished accumulation; also recorded: inhibits | de novo triacylglycerol biosynthesis in OECM1 cells (OECM1 cells [4]): diminished accumulation; also recorded: inhibits | folate metabolism in OECM1 cells (OECM1 cells [4]): diminished accumulation; also recorded: inhibits | glycine and serine metabolism in OECM1 cells (OECM1 cells [4]): diminished accumulation; also recorded: inhibits | level of ATP in OECM1 cells (relative abundance) (OECM1 cells [4]): altered | level of glucose in OECM1 cells (relative abundance) (OECM1 cells [4]): altered | mitochondrial electron transport in OECM1 cells (OECM1 cells [4]): diminished accumulation; also recorded: inhibits | Warburg effect in healthy OBA9 cells [5]: no effect
